Counter-ions that a name gives are not always drawn. Like-named read-outs stand apart in the source and are kept apart here.
How the values were obtained:
[1] = target: T1, SARS-CoV-2 PLpro (nsp3 1564–1878) (Severe acute respiratory syndrome coronavirus 2, UniProt P0DTD1); assay: biochemical; parameters: FRET-quenched peptide (Pro3) cleavage by PLpro, 10 min pre-incubation, slope over 20 min, normalised to no-compound control; conditions: read-out: % of control remaining
[2] = target: T1, SARS-CoV-2 PLpro (nsp3 1564–1878); assay: biochemical; parameters: FRET-quenched peptide (Pro3) cleavage by PLpro, 10 min pre-incubation, slope over 20 min, normalised to no-compound control; conditions: read-out: % of control remaining; remark: listed apart in the source

Compound `CCN(CCCc1ccccc1)CCCc1ccccc1` [Alverine Citrate] has a remaining activity at 3.75 µM ([1]; Well no.=5277, high concentration screen) of 91.3% and a remaining activity at 1.25 µM ([2]; Well no.=5277, low concentration screen) of 91.4%.

`CN(C)/N=N/c1[nH]cnc1C(N)=O` [Dacarbazine] showed a remaining activity at 3.75 µM ([1]; Well no.=1940, high concentration screen) of 99.4% and a remaining activity at 1.25 µM ([2]; Well no.=1940, low concentration screen) of 103%.

Work on `O=C(O[C@H]1C[C@H]2CC[C@@H](C1)[N+]21CCCC1)C(O)(c1ccccc1)c1ccccc1` [Trospium chloride (Sanctura)] yielded a remaining activity at 3.75 µM ([1]; Well no.=4916, high concentration screen) of 90.4% and a remaining activity at 1.25 µM ([2]; Well no.=4916, low concentration screen) of 97.3%.

Work on `CCCCCCCC/C=C\C/C=C\C/C=C\CCCC(=O)NCCO` [Mead ethanolamide] yielded a remaining activity at 3.75 µM ([1]; Well no.=4324, high concentration screen) of 95.4% and a remaining activity at 1.25 µM ([2]; Well no.=4324, low concentration screen) of 99.8%.

Work on `Nc1nonc1C(=Nc1ccc(F)c(Cl)c1)NO` [IDO5L] yielded a remaining activity at 3.75 µM ([1]; Well no.=8263, high concentration screen) of 103% and a remaining activity at 1.25 µM ([2]; Well no.=8263, low concentration screen) of 107%.

`CC(C)(C)S(=O)(=O)c1ccc2nccc(Nc3n[nH]c4ccc(F)cc34)c2c1` [GSK583] showed a remaining activity at 3.75 µM ([1]; Well no.=6206, high concentration screen) of 94.3% and a remaining activity at 1.25 µM ([2]; Well no.=6206, low concentration screen) of 101%.

For `CCCCCCCCCCCCCCCCCCCCCCC(=O)O` [Tricosanoic acid], the remaining activity at 3.75 µM ([1]; Well no.=4496, high concentration screen) was 92.7% and the remaining activity at 1.25 µM ([2]; Well no.=4496, low concentration screen) was 91.3%.

`CCN1C[C@]2(COC)[C@H](O)C[C@H](OC)[C@@]34[C@@H]5C[C@@]6(O)[C@H](OC(=O)c7ccccc7)[C@@H]5[C@@](OC(C)=O)([C@@H]([C@H](OC)[C@H]23)[C@@H]14)[C@@H](O)[C@@H]6OC` [Aconitine] gave a remaining activity at 3.75 µM [1] of 98.5% and a remaining activity at 1.25 µM [2] of 96%.

`CN1C(=O)C(c2c[nH]c3ccccc23)=C(c2c[nH]c3ccccc23)C1=O` [Bisindolylmaleimide V] was tested, and the remaining activity at 3.75 µM ([1]; Well no.=2339, high concentration screen) was 91.1% and the remaining activity at 1.25 µM ([2]; Well no.=2339, low concentration screen) was 92.9%.

Work on `NCCc1c[nH]cn1` [Histamine] yielded a remaining activity at 3.75 µM ([1]; Well no.=6665, high concentration screen) of 103%, a remaining activity at 3.75 µM ([1]; Well no.=7059, high concentration screen) of 109% and a remaining activity at 1.25 µM ([2]; Well no.=6665, low concentration screen) of 105%. It also gave a remaining activity at 1.25 µM ([2]; Well no.=7059, low concentration screen) of 102%.

In the case of `CNCC[C@@H](Oc1ccccc1C)c1ccccc1` [Tomoxetine], the remaining activity at 3.75 µM ([1]; Well no.=1182, high concentration screen) is reported as 95.7% and the remaining activity at 1.25 µM ([2]; Well no.=1182, low concentration screen) is reported as 99.4%.

With `CC(C)(C)[C@]1(O)CCN2C[C@H]3c4ccccc4CCc4cccc(c43)[C@@H]2C1` (racemic) the remaining activity at 3.75 µM ([1]; Well no.=135, high concentration screen) was 102% and the remaining activity at 1.25 µM ([2]; Well no.=135, low concentration screen) was 101%.

`Cc1ccc(C(=O)c2cc(O)c(O)c([N+](=O)[O-])c2)cc1` [Tolcapone] was tested, and the remaining activity at 3.75 µM ([1]; Well no.=1790, high concentration screen) was 96% and the remaining activity at 1.25 µM ([2]; Well no.=1790, low concentration screen) was 97.4%.

With `CC/C=C\C/C=C\C/C=C\C/C=C\C/C=C\CCCCCC(=O)O` [Docosapentaenoic acid] the remaining activity at 3.75 µM ([1]; Well no.=4347, high concentration screen) was 105%, the remaining activity at 3.75 µM ([1]; Well no.=4492, high concentration screen) was 91.7% and the remaining activity at 1.25 µM ([2]; Well no.=4347, low concentration screen) was 105%. For the same compound, the remaining activity at 1.25 µM ([2]; Well no.=4492, low concentration screen) was 93.7%.

`CSC(=N)NCCC[C@H](N)C(=O)O` [S-Methyl-L-thiocitrulline acetate] was tested, and the remaining activity at 3.75 µM ([1]; Well no.=1024, high concentration screen) was 101% and the remaining activity at 1.25 µM ([2]; Well no.=1024, low concentration screen) was 101%.

Work on `C=C1C(=O)O[C@@H]2/C=C(\C)CC/C=C(\C)CC[C@@H]12` [Costunolide] yielded a remaining activity at 3.75 µM ([1]; Well no.=5230, high concentration screen) of 99.1%, a remaining activity at 3.75 µM ([1]; Well no.=6634, high concentration screen) of 101% and a remaining activity at 1.25 µM ([2]; Well no.=5230, low concentration screen) of 101%. The remaining activity at 1.25 µM ([2]; Well no.=6634, low concentration screen) was 102%.

`C[C@@H](O)[C@H](N)c1nnc([C@H](CCC(N)=O)NC(=O)N[C@@H](CO)C(=O)O)o1` [PD-1-IN-17] was tested, and the remaining activity at 3.75 µM ([1]; Well no.=8741, high concentration screen) was 106% and the remaining activity at 1.25 µM ([2]; Well no.=8741, low concentration screen) was 102%.

With `C[Se]C[C@H](N)C(=O)O` [Se-(methyl)selenocysteine hydrochloride] the remaining activity at 3.75 µM ([1]; Well no.=1124, high concentration screen) was 95.6% and the remaining activity at 1.25 µM ([2]; Well no.=1124, low concentration screen) was 97.3%.

Compound `c1ccc([C@H]2CN3CCSC3=N2)cc1` [Levamisole] has a remaining activity at 3.75 µM ([1]; Well no.=2260, high concentration screen) of 94.2% and a remaining activity at 1.25 µM ([2]; Well no.=2260, low concentration screen) of 97.8%.

`NC12CC3CC(CC(C3)C1)C2` [Amantadine hydrochloride] was tested, and the remaining activity at 3.75 µM ([1]; Well no.=9, high concentration screen) was 103% and the remaining activity at 1.25 µM ([2]; Well no.=9, low concentration screen) was 104%.

`CC(C)C[C@H]1C(=O)N2CCC[C@H]2[C@]2(O)O[C@](NC(=O)[C@@H]3C=C4c5cccc6[nH]c(Br)c(c56)C[C@H]4N(C)C3)(C(C)C)C(=O)N12` [Bromocriptine mesylate] was tested, and the remaining activity at 3.75 µM ([1]; Well no.=1811, high concentration screen) was 91.6%, the remaining activity at 3.75 µM ([1]; Well no.=3485, high concentration screen) was 101% and the remaining activity at 1.25 µM ([2]; Well no.=1811, low concentration screen) was 92.4%. It also gave a remaining activity at 1.25 µM ([2]; Well no.=3485, low concentration screen) of 104%.

Compound `O=C(O)CCCc1ccccc1` [Sodium Phenylbutyrate] has a remaining activity at 3.75 µM ([1]; Well no.=1582, high concentration screen) of 103% and a remaining activity at 1.25 µM ([2]; Well no.=1582, low concentration screen) of 106%.

`CCCCc1nc(C)c(CC(=S)N(C)C)c(=O)n1Cc1ccc(-c2ccccc2-c2nnn[nH]2)cc1` [Fimasartan] was tested, and the remaining activity at 3.75 µM ([1]; Well no.=6183, high concentration screen) was 103% and the remaining activity at 1.25 µM ([2]; Well no.=6183, low concentration screen) was 107%.

`CN1Cc2c(ccc3c2OCO3)[C@@H]2[C@H]1c1cc3c(cc1C[C@@H]2O)OCO3` [(+)-Chelidonine] showed a remaining activity at 3.75 µM ([1]; Well no.=3439, high concentration screen) of 97.2% and a remaining activity at 1.25 µM ([2]; Well no.=3439, low concentration screen) of 95.5%.

`C/C(=C\C(=O)Nc1ccccc1C(=O)O)c1ccc2ccccc2c1` [BIBR 1532] showed a remaining activity at 3.75 µM ([1]; Well no.=5095, high concentration screen) of 106% and a remaining activity at 1.25 µM ([2]; Well no.=5095, low concentration screen) of 103%.

`CC[C@H](C)[C@H](NC(=O)[C@H](Cc1ccc(O)cc1)NC(=O)[C@@H](NC(=O)[C@H](CCCNC(=N)N)NC(=O)[C@@H](N)CC(=O)O)C(C)C)C(=O)N[C@@H](Cc1cnc[nH]1)C(=O)N1CCC[C@H]1C(=O)N[C@@H](Cc1ccccc1)C(=O)O` [Angiotensin II human] showed a remaining activity at 3.75 µM ([1]; Well no.=8345, high concentration screen) of 97.1% and a remaining activity at 1.25 µM ([2]; Well no.=8345, low concentration screen) of 93.9%.

In the case of `COC1=CC(=O)O[C@@H](/C=C/c2ccc3c(c2)OCO3)C1` [Methysticin], the remaining activity at 3.75 µM ([1]; Well no.=3565, high concentration screen) is reported as 108% and the remaining activity at 1.25 µM ([2]; Well no.=3565, low concentration screen) is reported as 105%.

Compound `CCCCC/C=C\C/C=C\CCCCCCCC(=O)NCC(=O)O` [N-Linoleoylglycine] has a remaining activity at 3.75 µM ([1]; Well no.=4595, high concentration screen) of 94.3% and a remaining activity at 1.25 µM ([2]; Well no.=4595, low concentration screen) of 95%.

`Cc1cc(C)nc(NS(=O)(=O)c2ccc(N)cc2)n1` [Sulfamethazine] gave a remaining activity at 3.75 µM ([1]; Well no.=4940, high concentration screen) of 95.8%, a remaining activity at 3.75 µM ([1]; Well no.=7456, high concentration screen) of 99.2% and a remaining activity at 1.25 µM ([2]; Well no.=4940, low concentration screen) of 96.7%. It also gave a remaining activity at 1.25 µM ([2]; Well no.=7456, low concentration screen) of 99.7%.

For `CCCCNc1c(C(=O)OCC)c(C)nc2c1cnn2CC` [Tracazolate], the remaining activity at 3.75 µM ([1]; Well no.=1472, high concentration screen) was 93.7% and the remaining activity at 1.25 µM ([2]; Well no.=1472, low concentration screen) was 93.2%.

`C=C(CC)C(=O)c1ccc(OCC(=O)O)c(Cl)c1Cl` [Ethacrynic Acid] gave a remaining activity at 3.75 µM ([1]; Well no.=1865, high concentration screen) of 94.6% and a remaining activity at 1.25 µM ([2]; Well no.=1865, low concentration screen) of 95.6%.

In the case of `CN(C)CCOc1ccc(/C(=C(/CCCl)c2ccccc2)c2ccccc2)cc1` [Toremifene], the remaining activity at 3.75 µM ([1]; Well no.=1966, high concentration screen) is reported as 102% and the remaining activity at 1.25 µM ([2]; Well no.=1966, low concentration screen) is reported as 104%.

In the case of `C=C[C@H]1CN2CC[C@H]1C[C@@H]2[C@@H](O)c1ccnc2ccc(OC)cc12` [Quinidine sulfate], the remaining activity at 3.75 µM ([1]; Well no.=1363, high concentration screen) is reported as 105% and the remaining activity at 1.25 µM ([2]; Well no.=1363, low concentration screen) is reported as 101%.

Reference: publication PMC8286840, “Identifying SARS-CoV-2 antiviral compounds by screening for small molecule inhibitors of Nsp3 papain-like protease” (Biochemical Journal, 2021)
